The values that follow come from patent US20110152342A1, “STABILIZED PHARMACEUTICAL COMPOSITION” (priority 2008, published 2011).

This data set in a line: Critical relative humidity of sugar alcohols determined at 37° C. In kind it is physicochemical. Conditions: lowest humidity at which an increase in moisture content is observed after 72 hours. The procedure: As such sugar alcohol, preferably used herein include those having a critical relative humidity as determined at 37° C. of not less than 70% and further preferably used herein are those having a critical relative humidity as determined at 37° C. of not less than 85%. […] For instance, the critical relative humidity can be determined by introducing samples (obtained after drying at 80° C. overnight) of about 1 g each into weighing bottles, placing them in thermo-hygrostats which have been set at the following relative humidity (RH) values: 37° C./40% RH, 37° C./45% RH, 37° C./55% RH, 37° C./65% RH, 37° C./70% RH, 37° C./75% RH, 37° C./80% RH, 37° C./85% RH, 37° C./90% RH, 37° C./95% RH and 37° C./98% RH, respectively (all of the chambers are of the same type: ETAC FX201P), allowing them to stand under such conditions over 72 hours, calculating the increase in the moisture content of each sample at this stage, and determining the lowest humidity at which an increase in the moisture content is observed, the resulting lowest humidity being defined to be the critical relative humidity of the sugar alcohol thus tested. […] The examples of such sugar alcohols having a critical relative humidity, as determined at 37° C., of not less than 70% are erythritol, xylitol, mannitol, maltitol, lactitol, and the like. […]

Regarding `OC[C@@H](O)[C@@H](O)[C@H](O)[C@H](O)CO` [mannitol], the critical relative humidity result was “not less than 98%”.
`OC[C@@H](O)[C@@H](O)[C@H](O)[C@@H](O)CO` [sorbitol]: the critical relative humidity is given as 65%.
